According to PubChem BioAssay AID1259411 (Chemical Carcinogenesis Research Information System (CCRIS), 2018):
Active and inactive are the calls of the source. No rule for the calls is given here.

System: rodent carcinogenicity bioassays, tumor incidence
Test: CCRIS carcinogenicity studies
In short: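 Archive of carcinogenicity, mutagenicity, tumor promotion and tumor inhibition results drawn from journals, NCI reports and other sources, expert-reviewed; covers 1985-2011 and is no longer updated.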

`ClC(Cl)C(Cl)Cl` was tested. Which carcinogen call (Species: MOUSE, Strain/Sex: B6C3F1/FEMALE, Route: GAVAGE, Dose: 0, 142, 282 MG/KG N CORN OIL 5 D/WK FOR 78 WK (STUDY DURATION: 90 WK), Dose: 0, 142, 282 MG/KG N CORN OIL 5 D/WK FOR 78 WK (STUDY DURATION: 90 WK), Tumor Site: Type of Lesion: LIVER: HEPATOCELLULAR CARCINOMA) did it give?
The carcinogen call was “active; positive”.

What about the carcinogen call (Species: MOUSE, Strain/Sex: B6C3F1/MALE, Route: GAVAGE, Dose: 0, 142, 282 MG/KG IN CORN OIL 5 D/WK FOR 78 WK (STUDY DURATION: 90 WK), Dose: 0, 142, 282 MG/KG IN CORN OIL 5 D/WK FOR 78 WK (STUDY DURATION: 90 WK), Tumor Site: Type of Lesion: LIVER: HEPATOCELLULAR CARCINOMA) of the same compound?
Its carcinogen call is “active; positive”.

And the carcinogen call (Species: RAT, Strain/Sex: OSBORNE-MENDEL/FEMALE, Route: GAVAGE, Dose: 0, 43, 76 MG/KG IN CORN OIL 5 D/WK FOR 78 WK (STUDY DURATION: 110 WK), Dose: 0, 43, 76 MG/KG IN CORN OIL 5 D/WK FOR 78 WK (STUDY DURATION: 110 WK))?
The carcinogen call was “inactive; negative”.

And the carcinogen call (Species: RAT, Strain/Sex: OSBORNE-MENDEL/MALE, Route: GAVAGE, Dose: 0, 62, 108 MG/KG IN CORN OIL 5 D/WK FOR 78 WK (STUDY DURATION: 110 WK), Dose: 0, 62, 108 MG/KG IN CORN OIL 5 D/WK FOR 78 WK (STUDY DURATION: 110 WK), Tumor Site: Type of Lesion: LIVER: NEOPLASTIC NODULE, HEPATOCELLULAR CARCINOMA)?
The carcinogen call was “equivocal”.

Which results are given for `CN=C(NCc1cnc(Cl)s1)N[N+](=O)[O-]`?
carcinogen call (Species: Rat, Strain/Sex: ???/Female (60/group), Route: Oral, Dose: 0, 150, 500, 1,500, 3,000 ppm in diet for 2 yr, Dose: 0, 150, 500, 1,500, 3,000 ppm in diet for 2 yr): inactive; negative (study details not given in source; purity 95.2%); carcinogen call (Species: Rat, Strain/Sex: ???/Male (60/group), Route: Oral, Dose: 0, 150, 500, 1,500, 3,000 ppm in diet for 2 yr, Dose: 0, 150, 500, 1,500, 3,000 ppm in diet for 2 yr): inactive; negative (study details not given in source; purity 95.2%)

For `CO[C@H]1C[C@]2(C)[C@@H](O)CC[C@H]2[C@@H]2CCc3cc(O)ccc3[C@H]21`, which carcinogen call (Species: HAMSTER, Strain/Sex: SYRIAN/MALE, Route: SUBCUTANEOUS IMPLANT, Dose: 0, 20 MG IN PELLETS IMPLANTED EVERY 2.5 MO FOR 9 MO (STUDY DURATION: 9 MO), Tumor Site: Type of Lesion: KIDNEY: TUMOR) is on record?
The carcinogen call was “active; positive”.

`OC[C@@H](O)[C@@H](O)CO` was tested. Which carcinogen call (Species: DOG, Strain/Sex: BEAGLE/FEMALE, Route: ORAL, Dose: 0, 2, 5, 10% IN DIET FOR 53 WK (STUDY DURATION: 53 WK), Dose: 0, 2, 5, 10% IN DIET FOR 53 WK (STUDY DURATION: 53 WK)) did it give?
The carcinogen call was “inactive; negative”.

And the carcinogen call (Species: DOG, Strain/Sex: BEAGLE/MALE, Route: ORAL, Dose: 0, 2, 5, 10% IN DIET FOR 53 WK (STUDY DURATION: 53 WK), Dose: 0, 2, 5, 10% IN DIET FOR 53 WK (STUDY DURATION: 53 WK))?
Its carcinogen call is “inactive; negative”.

What about the carcinogen call (Species: RAT, Strain/Sex: WISTAR/FEMALE, Route: ORAL, Dose: 0, 2, 5, 10% IN DIET FOR 104 WK (STUDY DURATION: 104 WK), Dose: 0, 2, 5, 10% IN DIET FOR 104 WK (STUDY DURATION: 104 WK)) of the same compound?
Its carcinogen call is “inactive; negative”.

And the carcinogen call (Species: RAT, Strain/Sex: WISTAR/MALE, Route: ORAL, Dose: 0, 2, 5, 10% IN DIET FOR 104 WK (STUDY DURATION: 104 WK), Dose: 0, 2, 5, 10% IN DIET FOR 104 WK (STUDY DURATION: 104 WK))?
The carcinogen call was “inactive; negative”.

With `CNNCc1ccc(C(=O)NC(C)C)cc1` as the compound, how does the carcinogen call (Species: MOUSE, Strain/Sex: B6C3F1/FEMALE, Route: INTRAPERITONEAL, Dose: 0, 6, 12 MG/KG IN BUFFERED SALINE 3/WK FOR 52 WK (STUDY DURATION: 67-85 WK), Dose: 0, 6, 12 MG/KG IN BUFFERED SALINE 3/WK FOR 52 WK (STUDY DURATION: 67-85 WK), Tumor Site: Type of Lesion: LUNG: ALVEOLAR/BRONCHIOLAR ADENOMA, HEMATOPOIETIC SYSTEM (LEUKEMIA), LYMPHATIC SYSTEM: LYMPHOMA, UTERUS: ADENOCARCINOMA, Tumor Site: Type of Lesion: LUNG: ALVEOLAR/BRONCHIOLAR ADENOMA, HEMATOPOIETIC SYSTEM (LEUKEMIA), LYMPHATIC SYSTEM: LYMPHOMA, UTERUS: ADENOCARCINOMA) read?
The carcinogen call was “active; positive”.

And the carcinogen call (Species: MOUSE, Strain/Sex: B6C3F1/MALE, Route: INTRAPERITONEAL, Dose: 0, 6, 12 MG/KG IN BUFFERED SALINE 3/WK FOR 52 WK (STUDY DURATION: 67-85 WK), Dose: 0, 6, 12 MG/KG IN BUFFERED SALINE 3/WK FOR 52 WK (STUDY DURATION: 67-85 WK), Tumor Site: Type of Lesion: LUNG: ALVEOLAR/BRONCHIOLAR ADENOMA OR CARCINOMA, HEMATOPOIETIC SYSTEM (LEUKEMIA), LYMPHATIC SYSTEM: LYMPHOMA, BRAIN: OLF, Tumor Site: Type of Lesion: LUNG: ALVEOLAR/BRONCHIOLAR ADENOMA OR CARCINOMA, HEMATOPOIETIC SYSTEM (LEUKEMIA), LYMPHATIC SYSTEM: LYMPHOMA, BRAIN: OLF)?
The carcinogen call was “active; positive”.

And the carcinogen call (Species: RAT, Strain/Sex: BR46/MALE, Route: INTRAVENOUS, Dose: 24 MG/KG 1/WK FOR 52 WK, Tumor Site: Type of Lesion: MULTIPLE SITES: BENIGN TUMOR OR MALIGNANT TUMOR)?
The carcinogen call was “active; positive”.

What about the carcinogen call (Species: RAT, Strain/Sex: SPRAGUE-DAWLEY/FEMALE, Route: INTRAPERITONEAL, Dose: 0, 15, 30 MG/KG IN BUFFERED SALINE 3/WK FOR 26 WK (STUDY DURATION: 31-86 WK), Dose: 0, 15, 30 MG/KG IN BUFFERED SALINE 3/WK FOR 26 WK (STUDY DURATION: 31-86 WK), Tumor Site: Type of Lesion: LYMPHATIC SYSTEM: MALIGNANT LYMPHOMA, MAMMARY GLAND: ADENOMA (NOS) OR ADENOCARCINOMA (NOS), BRAIN (CEREBRUM): OLFACTORY, Tumor Site: Type of Lesion: LYMPHATIC SYSTEM: MALIGNANT LYMPHOMA, MAMMARY GLAND: ADENOMA (NOS) OR ADENOCARCINOMA (NOS), BRAIN (CEREBRUM): OLFACTORY) of the same compound?
The carcinogen call was “active; positive”.

And the carcinogen call (Species: RAT, Strain/Sex: SPRAGUE-DAWLEY/MALE, Route: INTRAPERITONEAL, Dose: 0, 15, 30 MG/KG IN BUFFERED SALINE 3/WK FOR 26 WK (STUDY DURATION: 43-86 WK), Dose: 0, 15, 30 MG/KG IN BUFFERED SALINE 3/WK FOR 26 WK (STUDY DURATION: 43-86 WK), Tumor Site: Type of Lesion: HEMATOPOIETIC SYSTEM (LEUKEMIA), LYMPHATIC SYSTEM: MALIGNANT LYMPHOMA, MAMMARY GLAND: ADENOMA (NOS) OR ADENOSARCOMA (NOS, Tumor Site: Type of Lesion: HEMATOPOIETIC SYSTEM (LEUKEMIA), LYMPHATIC SYSTEM: MALIGNANT LYMPHOMA, MAMMARY GLAND: ADENOMA (NOS) OR ADENOSARCOMA (NOS)?
The carcinogen call was “active; positive”.

Which carcinogen call (Species: RAT, Strain/Sex: F344/FEMALE, Route: INTRAGASTRIC, Dose: 0, 25 MG/ML CORN OIL/ETHYL ACETATE (2:1) SOLUTION ADMINISTERED AS 0.2 ML 2/WK FOR 37 WK (STUDY DURATION: 102 WK), Tumor Site: Type of Lesion: NASAL CAVITY: ADENOMA) does the source give for `CCNC(=O)N(C=O)CCN(C)C` here?
Its carcinogen call is “active; positive”.

What about the carcinogen call (Species: RAT, Strain/Sex: F344/MALE, Route: INTRAGASTRIC, Dose: 0, 25 MG/ML CORN OIL/ETHYL ACETATE (2:1) SOLUTION ADMINISTERED AS 0.2 ML 2/WK FOR 37 WK (STUDY DURATION: 102 WK)) of the same compound?
Its carcinogen call is “inactive; negative”.
